How the values were obtained:
[1] = biological target: T1, recombinant human ALK5 (TGF-βR1) protein (Homo sapiens, UniProt P36897); assay: Biochemical ALK5 (TGF-βR1) assay to measure pKi (LANCE Ultra ULight kinase assay); conditions: apparent pKi from pIC50 by Cheng-Prusoff, read-out: ALK5 pKi (converted)
T1 construct: purchased Life Technologies PR9075A
T1 sequence (P36897 34-503): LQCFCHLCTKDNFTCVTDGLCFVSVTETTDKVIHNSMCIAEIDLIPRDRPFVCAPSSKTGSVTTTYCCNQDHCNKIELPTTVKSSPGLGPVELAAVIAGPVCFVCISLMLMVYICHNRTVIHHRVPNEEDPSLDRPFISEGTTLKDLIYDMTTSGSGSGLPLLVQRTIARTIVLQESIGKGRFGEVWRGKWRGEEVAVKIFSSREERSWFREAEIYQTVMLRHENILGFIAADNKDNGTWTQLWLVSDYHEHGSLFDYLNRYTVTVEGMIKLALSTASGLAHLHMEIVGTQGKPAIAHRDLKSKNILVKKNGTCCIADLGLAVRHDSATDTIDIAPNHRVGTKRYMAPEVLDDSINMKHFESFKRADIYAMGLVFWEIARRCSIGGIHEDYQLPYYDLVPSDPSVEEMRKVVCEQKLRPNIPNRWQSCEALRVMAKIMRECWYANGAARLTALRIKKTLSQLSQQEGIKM
Procedure, shortened: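 Dose range 10 μM–25 pM; enzyme + compound 60 min RT; ATP added (5× stock 125 μM, 2 mM DTT); 60 min 37 °C; stop with EDTA + Eu anti-phospho-Topo IIα Thr1342 Ab; TR-FRET ex 320/340, em 665 nm. 4-param pIC50 → pKi (Cheng-Prusoff).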

[2] = tested on: TGF-β-stimulated SMAD3 phosphorylation in BEAS-2B cells; assay: Cellular ALK5 potency assay, inhibition of TGF-β stimulated pSMAD3 formation in BEAS-2B cells; assay type: cell-based; conditions: Homo sapiens; inhibition of TGF-β stimulated pSMAD3 formation, BEAS-2B cells; read-out: BEAS2B pIC50 (converted)
Procedure, shortened: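 SMAD3 phosphorylation was measured by AlphaLISA after 30 min TGF-β stimulation (10 ng/mL final) of BEAS-2B cells preincubated 1 h with compound at 37 °C. Results given as pIC50.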

**Q.** With `Cc1cccc(-c2n[nH]cc2-c2ccc3ncc(-c4cn5c(n4)CN(CCO)CC5)cc3n2)n1` [Compound 198, 2-[2-[6-[3-(6-methyl-2-pyridyl)-1H-pyrazol-4-yl]-1,5-naphthyridin-3-yl]-6,8-dihydro-5H-imidazo[1,2-a]pyrazin-7-yl]ethanol] as the compound, how does the Ki [1] read?
**A.** 0.0398 to 0.316 nM

**Q.** And the IC50 [2]?
**A.** 25.1 to 158 nM

**Q.** `Cc1cccc(-c2nc3ccccn3c2-c2ccc3ncc(N4CCNCC4)cc3c2)n1` [Compound 287, 6-[2-(6-methyl-2-pyridyl)imidazo[1,2-a]pyridin-3-yl]-3-piperazin-1-yl-quinoline] was tested. Which Ki [1] did it give?
**A.** 0.0398 to 0.316 nM

**Q.** And the IC50 [2]?
**A.** 25.1 to 158 nM

**Q.** With `Cc1cccc(-c2[nH]cnc2-c2ccc3ncc(-c4cccc(N5CC(N)C5)c4)cc3c2)n1` [Compound 397, 1-[3-[6-[5-(6-methyl-2-pyridyl)-1H-imidazol-4-yl]-3-quinolyl]phenyl]azetidin-3-amine] as the compound, how does the Ki [1] read?
**A.** < 0.0316 nM

**Q.** What about the IC50 [2] of the same compound?
**A.** 25.1 to 158 nM

**Q.** For `Cc1cccc(-c2n[nH]cc2-c2ccc3nccc(N(C)CC(=O)N4CCOCC4)c3n2)n1` [Compound 836, 2-[methyl-[6-[3-(6-methyl-2-pyridyl)-1H-pyrazol-4-yl]-1,5-naphthyridin-4-yl]amino]-1-morpholino-ethanone], which Ki [1] is on record?
**A.** 3.98 to 31.6 nM

**Q.** And the IC50 [2]?
**A.** 200 to 1260 nM

**Q.** For `Cc1cccc(-c2[nH]ncc2-c2ccc3nccc(C(=O)OC4CNC4)c3c2)n1` [Compound 1237, azetidin-3-yl 6-[5-(6-methyl-2-pyridyl)-1H-pyrazol-4-yl]quinoline-4-carboxylate], which Ki [1] is on record?
**A.** 0.0398 to 0.316 nM

**Q.** What about the IC50 [2] of the same compound?
**A.** 25.1 to 158 nM

**Q.** For `Cc1cccc(-c2[nH]ncc2-c2ccc3nccc(C(=O)O)c3c2)n1` [Compound 1064, 6-[5-(6-methyl-2-pyridyl)-1H-pyrazol-4-yl]quinoline-4-carboxylic acid], which Ki [1] is on record?
**A.** 3.98 to 31.6 nM

**Q.** What about the IC50 [2] of the same compound?
**A.** 1580 to 10000 nM

**Q.** Which Ki [1] does the source give for `Cc1cccc(-c2n[nH]cc2-c2ccc3ncc(NC(C)(C)CN4CCN(C)CC4)cc3n2)n1` [Compound 556, N-[1,1-dimethyl-2-(4-methylpiperazin-1-yl)ethyl]-6-[3-(6-methyl-2-pyridyl)-1H-pyrazol-4-yl]-1,5-naphthyridin-3-amine] here?
**A.** 0.398 to 3.16 nM

**Q.** And the IC50 [2]?
**A.** 25.1 to 158 nM

**Q.** With `Cc1cccc(-c2[nH]cnc2-c2ccc3ncc(N4CCNC(CC(=O)O)C4)cc3c2)n1` (centres unmarked) [Compound 500, 2-(4-(6-(5-(6-methylpyridin-2-yl)-1H-imidazol-4-yl)quinolin-3-yl)piperazin-2-yl)acetic acid] as the compound, how does the Ki [1] read?
**A.** 0.0398 to 0.316 nM

**Q.** And the IC50 [2]?
**A.** 1580 to 10000 nM

**Q.** How did the Ki [1] turn out when `CNCCn1cc(-c2cnc3ccc(-c4c(-c5cccc(C)n5)nnn4Cc4ccccc4)nc3c2)cn1` [Compound 439, 2-[4-[6-[3-benzyl-5-(6-methyl-2-pyridyl)triazol-4-yl]-1,5-naphthyridin-3-yl]pyrazol-1-yl]-N-methyl-ethanamine] was run?
**A.** 0.0398 to 0.316 nM

**Q.** And the IC50 [2]?
**A.** 25.1 to 158 nM

**Q.** With `Cc1cccc(-c2[nH]cnc2-c2ccc3nccc(C(=O)OCC4CNC4)c3c2)n1` [Compound 1038, azetidin-3-ylmethyl 6-[5-(6-methyl-2-pyridyl)-1H-imidazol-4-yl]quinoline-4-carboxylate] as the compound, how does the Ki [1] read?
**A.** 0.398 to 3.16 nM

**Q.** What about the IC50 [2] of the same compound?
**A.** 25.1 to 158 nM

**Q.** `Cc1cccc(-c2n[nH]cc2-c2ccc3ncc(CNC(C(=O)OC4CCCC4)c4ccccc4)cc3n2)n1` (centres unmarked) [Compound 684, cyclopentyl 2-[[6-[3-(6-methyl-2-pyridyl)-1H-pyrazol-4-yl]-1,5-naphthyridin-3-yl]methylamino]-2-phenyl-acetate] was tested. Which Ki [1] did it give?
**A.** 3.98 to 31.6 nM

**Q.** What about the IC50 [2] of the same compound?
**A.** 200 to 1260 nM

**Q.** With `Cc1nc(-c2n[nH]cc2-c2ccc3ncc(-c4ncn5c4CNCC5)cc3n2)ccc1F` [Compound 107, 2-[3-(5-fluoro-6-methyl-2-pyridyl)-1H-pyrazol-4-yl]-7-(5,6,7,8-tetrahydroimidazo[1,5-a]pyrazin-1-yl)-1,5-naphthyridine] as the compound, how does the Ki [1] read?
**A.** 0.0398 to 0.316 nM

**Q.** What about the IC50 [2] of the same compound?
**A.** 25.1 to 158 nM

**Q.** `Cc1cccc(-c2[nH]cnc2-c2ccc3ncc(-c4cnc(C(=O)OC5CNC5)nc4)cc3c2)n1` [Compound 1112, azetidin-3-yl 5-[6-[5-(6-methyl-2-pyridyl)-1H-imidazol-4-yl]-3-quinolyl]pyrimidine-2-carboxylate] was tested. Which Ki [1] did it give?
**A.** 0.398 to 3.16 nM

**Q.** What about the IC50 [2] of the same compound?
**A.** 1580 to 10000 nM

**Q.** Which Ki [1] does the source give for `Cc1cccc(-c2[nH]cnc2-c2ccc3ncc(-c4nc5c(s4)CCNC5)cc3c2)n1` [Compound 727, 2-(6-(5-(6-methylpyridin-2-yl)-1H-imidazol-4-yl)quinolin-3-yl)-4,5,6,7-tetrahydrothiazolo[4,5-c]pyridine] here?
**A.** < 0.0316 nM

**Q.** What about the IC50 [2] of the same compound?
**A.** < 20 nM

**Q.** How did the Ki [1] turn out when `Cc1nc(-c2nc3ccccn3c2-c2ccc3ncc(-c4nnn5c4CNCC5)cc3n2)ccc1F` [Compound 202, 2-[2-(5-fluoro-6-methyl-2-pyridyl)imidazo[1,2-a]pyridin-3-yl]-7-(4,5,6,7-tetrahydrotriazolo[1,5-a]pyrazin-3-yl)-1,5-naphthyridine] was run?
**A.** 0.0398 to 0.316 nM

**Q.** What about the IC50 [2] of the same compound?
**A.** 200 to 1260 nM

**Q.** How did the Ki [1] turn out when `Cc1nc(-c2nc3ccccn3c2-c2ccc3ncc(-c4nc5n(n4)CCNC5)cc3n2)ccc1F` [Compound 447, 2-[2-(5-fluoro-6-methyl-2-pyridyl)imidazo[1,2-a]pyridin-3-yl]-7-(5,6,7,8-tetrahydro-[1,2,4]triazolo[1,5-a]pyrazin-2-yl)-1,5-naphthyridine] was run?
**A.** 0.0398 to 0.316 nM

**Q.** And the IC50 [2]?
**A.** 25.1 to 158 nM

**Q.** Which results are given for `CCNC(=O)C1CCN(CCNc2cnc3ccc(-c4nc[nH]c4-c4cccc(C)n4)cc3c2)CC1` [Compound 643, N-ethyl-1-[2-[[6-[5-(6-methyl-2-pyridyl)-1H-imidazol-4-yl]-3-quinolyl]amino]ethyl]piperidine-4-carboxamide]?
**A.** Ki [1]: 0.398 to 3.16 nM; IC50 [2]: 25.1 to 158 nM

**Q.** For `Cc1cccc(-c2nnn(Cc3ccccc3)c2-c2ccc3ncc(NCCN4CCN(C(C)C)CC4)cc3n2)n1` [Compound 373, 6-(1-benzyl-4-(6-methylpyridin-2-yl)-1H-1,2,3-triazol-5-yl)-N-(2-(4-isopropylpiperazin-1-yl)ethyl)-1,5-naphthyridin-3-amine], which Ki [1] is on record?
**A.** 0.0398 to 0.316 nM

**Q.** And the IC50 [2]?
**A.** 200 to 1260 nM

**Q.** With `Cc1cccc(-c2[nH]nnc2-c2ccc3ncc(-c4cnn(C5CCCNC5)c4)cc3n2)n1` (centres unmarked) [Compound 602, 2-[5-(6-methyl-2-pyridyl)-1H-triazol-4-yl]-7-[1-(3-piperidyl)pyrazol-4-yl]-1,5-naphthyridine] as the compound, how does the Ki [1] read?
**A.** < 0.0316 nM

**Q.** What about the IC50 [2] of the same compound?
**A.** 200 to 1260 nM

**Q.** Which Ki [1] does the source give for `Cc1cccc(-c2[nH]cnc2-c2ccc3ncc(-c4cc(C(=O)OC5CNC5)cs4)cc3c2)n1` [Compound 1057, azetidin-3-yl 5-[6-[5-(6-methyl-2-pyridyl)-1H-imidazol-4-yl]-3-quinolyl]thiophene-3-carboxylate] here?
**A.** < 0.0316 nM

**Q.** What about the IC50 [2] of the same compound?
**A.** 25.1 to 158 nM

**Q.** For `Cc1cccc(-c2[nH]cnc2-c2ccc3ncc(-c4csc(C(=O)OC[C@H]5CCCN5)c4)cc3c2)n1` [Compound 1219, [(2R)-pyrrolidin-2-yl]methyl 4-[6-[5-(6-methyl-2-pyridyl)-1H-imidazol-4-yl]-3-quinolyl]thiophene-2-carboxylate], which Ki [1] is on record?
**A.** < 0.0316 nM

**Q.** What about the IC50 [2] of the same compound?
**A.** 25.1 to 158 nM

**Q.** Which results are given for `Cc1nc(-c2[nH]cnc2-c2ccc3ncc(-c4cnn(CCN)c4)cc3n2)ccc1F` [Compound 225, 2-[4-[6-[5-(5-fluoro-6-methyl-2-pyridyl)-1H-imidazol-4-yl]-1,5-naphthyridin-3-yl]pyrazol-1-yl]ethanamine]?
**A.** Ki [1]: 0.0398 to 0.316 nM; IC50 [2]: 25.1 to 158 nM

**Q.** What does the source list for `Cc1cccc(-c2n[nH]cc2-c2ccc3ncc(-c4nnn5c4CNCC5)cc3c2)n1` [Compound 343, 6-[3-(6-methyl-2-pyridyl)-1H-pyrazol-4-yl]-3-(4,5,6,7-tetrahydrotriazolo[1,5-a]pyrazin-3-yl)quinoline]?
**A.** Ki [1]: 0.0398 to 0.316 nM; IC50 [2]: 25.1 to 158 nM

**Q.** For `Cc1cccc(-c2[nH]cnc2-c2ccc3ncc(N4CC5(CCNCC5)C4)cc3c2)n1` [Compound 179, 3-(2,7-diazaspiro[3.5]nonan-2-yl)-6-[5-(6-methyl-2-pyridyl)-1H-imidazol-4-yl]quinoline], which Ki [1] is on record?
**A.** 0.0398 to 0.316 nM

**Q.** What about the IC50 [2] of the same compound?
**A.** 25.1 to 158 nM

**Q.** Which Ki [1] does the source give for `Cc1cccc(-c2[nH]cnc2-c2ccc3ncc(N4CCC(C(=O)O[C@@H]5CCNC5)CC4)cc3c2)n1` [Compound 41, [(3R)-pyrrolidin-3-yl] 1-[6-[5-(6-methyl-2-pyridyl)-1H-imidazol-4-yl]-3-quinolyl]piperidine-4-carboxylate] here?
**A.** 0.0398 to 0.316 nM

**Q.** And the IC50 [2]?
**A.** 25.1 to 158 nM

**Q.** For `CCN1CCN(c2cnc3ccc(-c4c[nH]nc4-c4cccc(C)n4)nc3c2)CC1` [Compound 390, 7-(4-ethylpiperazin-1-yl)-2-[3-(6-methyl-2-pyridyl)-1H-pyrazol-4-yl]-1,5-naphthyridine], which Ki [1] is on record?
**A.** 0.0398 to 0.316 nM

**Q.** And the IC50 [2]?
**A.** 25.1 to 158 nM

**Q.** What does the source list for `Cc1cccc(-c2[nH]cnc2-c2ccc3ncc(C4=CCC(NC(=O)CC5CNC5)CC4)cc3c2)n1` (racemic) [Compound 793, 2-(azetidin-3-yl)-N-[rac-(1R)-4-[6-[5-(6-methyl-2-pyridyl)-1H-imidazol-4-yl]-3-quinolyl]cyclohex-3-en-1-yl]acetamide]?
**A.** Ki [1]: 0.0398 to 0.316 nM; IC50 [2]: 200 to 1260 nM

**Q.** Which results are given for `Cc1cccc(-c2[nH]nnc2-c2ccc3ncc(N4CCC(N(C)C)C4)cc3c2)n1` (racemic) [Compound 561, rac-(3S)-N,N-dimethyl-1-[6-[5-(6-methyl-2-pyridyl)-1H-triazol-4-yl]-3-quinolyl]pyrrolidin-3-amine]?
**A.** Ki [1]: < 0.0316 nM; IC50 [2]: 25.1 to 158 nM

Source: patent US11590116B2 (THERAVANCE BIOPHARMA R&D IP, LLC, priority 2019, dated 2023)
